Results from patent EP0383856B1, “USE OF PEPTIDES FOR INHIBITING BLOOD VESSEL BLOCKAGE” (SOCIETE DE CONSEILS DE […] D'APPLICATIONS SCIENTIFIQUES …, priority 1988, dated 1989).
Several values for one entry are separate records, joined by “and”; a condition that tells them apart may be missing. Identical values can stand only once. Like-named read-outs stand apart in the source and are kept apart here.

Assays:
Myointimal Hyperplasia = test: Myointimal hyperplasia in rabbits after balloon angioplasty of iliac artery and aorta (morphometry); format: in vivo, white New Zealand rabbits; details: for percentage of inhibition of myointimal hyperplasia: 20 µg/kg/d; for % Intimal hyperplasia, Mean: group mean; for % Intimal hyperplasia: individual samples
Description: Female and Male, white New Zealand rabbits (2.8-3.0 kg) were divided into two groups (A and B). Group A (vehicle control) received subcutaneous injections of physiological saline (0.2 ml) twice daily. […] The animals were treated the day before angioplasty, and until sacrifice about 3 weeks later. The angioplasty was done under general anesthesia with Ketamine and Xylazine. Each animal's left iliac artery and aorta were denuded with an angioplasty catheter (Fogarty). The angioplasty catheter was inserted into the left femoral artery and passed through the vessel to the thoracic aorta. The catheter was then reciprocated three times. The animals were all sacrificed from days 22-24 after angioplasty. The aorta and iliac arteries were fixed in situ via perfusion with formaldehyde under constant perfusion pressure.
Intimal hyperplasia was determined on elastin-stained (Van Giesen) horizontally-cut sections. The sections were obtained from (i) the aorta at the level of the renal artery, (ii) the common iliac artery at the level of bifurcation, and (iii) the external iliac artery just above the inguinal ligament. The area of intimal hyperplasia and total vessel area were determined by morphometry. The percentage of intimal hyperplasia was expressed as follows: [formula] Single determinations were made on three segments of each aorta and the two iliac arteries of each animal. The percentage of intimal hyperplasia was determined as the mean of the two closest measurements of each vessel.

growth hormone release = details: in vivo, from Heiman et al., Coy et al., Tolis et al., cited from earlier work
[1] = test system: myointimal cell proliferation in the aortas of rabbits; test: Rabbit aorta 72 hours after balloon angioplasty: wet weight, protein, DNA/protein, 3-H thymidine incorporation; format: in vivo, New Zealand White Rabbits; details: for Levels of Proteins (total protein content of the injured aortas): Fig. 2; for DNA/Protein Ratio: Fig. 3; for Thymidine (3-H) Incorporation (rates of cell proliferation): Fig. 4
Description: New Zealand White Rabbits were anesthetised with Rompun (Xylazine) and Ketalar (Ketamine) and a cannula (3F Fogarty) was inserted from the femoral artery. The balloon was inflated at a constant pressure and the aorta was deendothelialised by angioplasty. The process was repeated three times and the wound site was closed. The animals were sacrificed 72 hours after balloon angioplasty and after removing the adventitia the aorta was cut into fine rings. These rings were incubated in the presence of 3-H thymidine and the radioactivity was determined after processing the tissue. Simultaneous measurements of DNA and protein contents were also made in these tissues.
Eight injections of Angiopeptin were made: on the morning and evening of the day prior to ballooning; two on the day of the procedure; and two on each of the following two days. The total daily dose was 2, 20, or 200 µg/Kg body weight.

[2] = test system: myointimal proliferation of the carotid artery; test: Air-drying injury of the rat carotid artery, myointimal proliferation (maximal intimal/media ratio, morphometry); format: in vivo, Sprague-Dawley rats
Description: Male Sprague-Dawley rats, weighing […], obtained from Charles River were kept under controlled lighting conditions and fed rat chow and water ad libitum. Under sodium pentobarbital anesthesia the intima of the right carotid artery was subjected to an air-drying injury described by Fishman et al, Lab Invest., 32, 339 (1975). This procedure causes intimal hyperplasia that largely consists of proliferating intimal smooth muscle cells. In this model approximately 4 cm of the vessel is isolated and drained of blood. Air (20 ml/min) is blown through a 30 gauge needle for 5 min whereafter blood flow is reestablished. The contralateral carotid artery was also exposed but not air-dried. The rats were sacrificed 15 days later.
The experiment consisted of a control group and ten treatment groups. The somatostatin analogs used were hepta- or octapeptides, namely BIM 23014 (Angiopeptin), BIM 23012, BIM 23027, BIM 23030 and BIM 23034. […] The animals were pretreated two days prior to the procedure and for a further five days following the endothelial injury. Two additional groups of animals were added in order to study whether Angiopeptin (20 µg/kg/day and 50 µg/kg/day) administered 30 min prior to the endothelial injury and for a further five days would protect against the myointimal proliferation.
The animals were sacrificed on day 15 following the injury by exsanguination. The vascular system was flushed with normal saline and perfusion-fixed at 80 mmHg with 10% formalin. The carotid arteries were subsequently fixed, embedded and sectioned for light microscopy and morphometric analysis. The maximal intimal/media ratio is the distance from the lumen to the internal elastic lamina and the distance from the internal elastic lamina to the external elastic lamina. The distances were determined in each vessel using a digitizing system attached to a light microscope. The determinations were performed on three different cross sections of the vessel and each section was measured three times. The mean was calculated for each vessel. Differences between the groups were evaluated using Student's unpaired t-test.

[3] = test system: smooth muscle pig left coronary artery explants; test: H3-thymidine incorporation in denuded pig left coronary artery explants; format: cell-based, Domestic pig; details: 24 hr, individual segments
Description: Domestic pig hearts were obtained from a slaughter house immediately after the animals were sacrificed. The hearts were harvested and placed in ice-cold Kreb's Ringer buffer and transported to the laboratory. The left coronary artery (LAD) was dissected in aseptic conditions and divided into pieces of 5 mm. The segments were denuded from the endothelium by gently introducing a metallic rod in the lumen. The tissues were placed in sterile multiwell culture dishes in 1 ml of culture media (DMEM with antibiotics) and without fetal calf serum. H³-thymidine (2.5 uCi/ml) and increasing concentrations of angiopeptin (10-1000 ng/ml) were added to the medium. Segments which were incubated with 3 different concentrations of forskolin were used as a positive control in each experiment. The incubation period was 24 hr at 37°C and 5% CO₂. The tissues were washed with phosphate saline buffer and placed in a solution of cold thymidine for one hour and then frozen in liquid nitrogen, ground and lysed with a hypotonic solution. The lysed tissues were further incubated with proteinase K overnight at 50°C. The radioactivity, content of protein and DNA were measured.

[4] = test system: smooth muscle cell proliferation; test: Primate balloon catheter injury of aorta and femoral arteries, smooth muscle cell proliferation; format: in vivo, cynomologous macaques; details: aorta and left and right femoral arteries; i.m. slow release system, total 50 µg/kg/day; one treated animal versus one control; five weeks
Description: In order to obtain a primate coronary angioplasty model which would be suited for evaluation of Angiopeptin, a feasibility study was performed on primates which were made available from the colony at Bowman-Gray Medical School, Winston-Salem, North Carolina. These animals were culled from the colony due to failure of the primates to satisfactorily elevate blood lipids when administered a high cholesterol diet. Young male cynomologous macaques weighing approximately 3.5 kg were used after an equilibration period of more than a week in a primate facility.
The animals were sedated with Ketamine and maintained with 1% halothane in oxygen. The aorta and femoral arteries were injured by a balloon catheter (USCI, Band). After five weeks the primates were anesthetized and sacrificed. The aorta and femoral arteries were removed and fixed in formaldehyde for morphometric analysis. […]
The maximal intimal/media ratio (distance from lumen to internal elastic lamina/distance from internal elastic lamina to external elastic lamina) was determined in each vessel using a digitizing system attached to a light microscope. The determinations were done on three different cross sections of the vessel and each section was measured three times and each three measurements were averaged.

[5] = common iliac artery, female rabbits
[6] = common iliac artery, male rabbits
[7] = external iliac artery, female rabbits
[8] = external iliac artery, male rabbits

Q: Which “percentage of inhibition of myointimal hyperplasia” value (Myointimal Hyperplasia; aorta, female rabbits) does the source give for `CC(C)[C@@H]1NC(=O)[C@H](CCCCN)NC(=O)[C@@H](Cc2c[nH]c3ccccc23)NC(=O)[C@H](Cc2ccc(O)cc2)NC(=O)[C@@H](NC(=O)[C@H](N)Cc2ccc3ccccc3c2)CSSC[C@@H](C(=O)N[C@H](C(N)=O)[C@@H](C)O)NC1=O` [Angiopeptin, D-Nal-Cys-Tyr-D-Trp-Lys-Val-Cys-Thr-NH₂] here?
A: ~43%

Q: And the “% Intimal hyperplasia, Mean” value (Myointimal Hyperplasia; aorta, female rabbits)?
A: 12.5%

Q: What about the “% Intimal hyperplasia” value (Myointimal Hyperplasia; aorta, female rabbits) of the same molecule?
A: 13.0% and 10.7% and 12.8% and 19.5% and 6.4%

Q: And the “percentage of inhibition of myointimal hyperplasia” value (Myointimal Hyperplasia; aorta, male rabbits)?
A: ~32%

Q: What about the “% Intimal hyperplasia, Mean” value (Myointimal Hyperplasia; aorta, male rabbits) of the same molecule?
A: 14.8%

Q: What about the “% Intimal hyperplasia” value (Myointimal Hyperplasia; aorta, male rabbits) of the same molecule?
A: 15.9% and 17.0% and 12.4% and 13.3% and 13.8% and 15.7% (2×)

Q: What about the “percentage of inhibition of myointimal hyperplasia” value (Myointimal Hyperplasia; [5]) of the same molecule?
A: ~33%

Q: What about the “% Intimal hyperplasia, Mean” value (Myointimal Hyperplasia; [5]) of the same molecule?
A: 13.1%

Q: What about the “% Intimal hyperplasia” value (Myointimal Hyperplasia; [5]) of the same molecule?
A: 6.5% and 9.3% and 9.5% and 19.7% and 20.5% and 15.3% and 16.6% and 7.7%

Q: And the “percentage of inhibition of myointimal hyperplasia” value (Myointimal Hyperplasia; [6])?
A: ~39%

Q: And the “% Intimal hyperplasia, Mean” value (Myointimal Hyperplasia; [6])?
A: 14.1%

Q: And the “% Intimal hyperplasia” value (Myointimal Hyperplasia; [6])?
A: 14.9% and 16.0% and 6.4% and 17.4% and 13.9% and 15.8% and 14.0%

Q: And the “percentage of inhibition of myointimal hyperplasia” value (Myointimal Hyperplasia; [7])?
A: about 41%

Q: And the “% Intimal hyperplasia, Mean” value (Myointimal Hyperplasia; [7])?
A: 20.7%

Q: What about the “% Intimal hyperplasia” value (Myointimal Hyperplasia; [7]) of the same molecule?
A: 17.8% and 26.4% and 15.2% and 21.3% and 33.6% and 24.1% and 20.6% and 6.6%

Q: What about the “percentage of inhibition of myointimal hyperplasia” value (Myointimal Hyperplasia; [8]) of the same molecule?
A: ~20%

Q: And the “% Intimal hyperplasia, Mean” value (Myointimal Hyperplasia; [8])?
A: 24.4%

Q: And the “% Intimal hyperplasia” value (Myointimal Hyperplasia; [8])?
A: 30.5% and 19.2% and 25.7% and 26.5% and 22.3% and 37.9% and 22.2%

Q: What about the “inhibition of growth hormone release” value (growth hormone release) of the same molecule?
A: less active

Q: And the “inhibition of growth hormone release” value (growth hormone release; listed as BIM 23014)?
A: potent inhibitors of growth hormone release

Q: What about the “Levels of Proteins (total protein content of the injured aortas)” value ([1]; 2 µg/kg body wt.) of the same molecule?
A: lowered the total protein content

Q: And the “DNA/Protein Ratio” value ([1]; 20 µg/kg body weight)?
A: significantly lowered

Q: What about the “Thymidine (3-H) Incorporation (rates of cell proliferation)” value ([1]; 20 µg/kg body wt.) of the same molecule?
A: significantly lower

Q: And the “DNA/Protein Ratio” value ([1]; 200 µg/kg body wt.)?
A: reflected the inhibitory influence

Q: And the “Thymidine (3-H) Incorporation (rates of cell proliferation)” value ([1]; 200 µg/kg)?
A: still inhibited the myointimal proliferation

Q: And the “Wet Weight of aortas” value ([1]; 2, 20 and 200 µg/kg body wt. daily, 72 hours after balloon angioplasty, Fig. 1)?
A: does not seem to influence

Q: What about the “Levels of Proteins (total protein content of the injured aortas)” value ([1]; higher doses (20 and 200 µg/kg body wt.)) of the same molecule?
A: did not affect the levels of total proteins

Q: What about the “myointimal proliferation of the carotid artery following endothelial injury by air drying” value (shortened to “myointimal proliferation … by air drying”) ([2]; 20 µg/kg/day s.c. in two divided doses, from two days prior to injury and five days after, sacrifice day 15) of the same molecule?
A: effective

Q: And the “myointimal proliferation … by air drying” value ([2]; 50 µg/kg/day s.c. in two divided doses, from two days prior to injury and five days after, sacrifice day 15)?
A: effective

Q: And the myointimal proliferation ([2]; 50 µg/kg/day, started 30 min prior to the arterial injury and for a further five days)?
A: significantly (p<0.01) inhibited

Q: What about the “myointimal proliferation … by air drying” value ([2]; overall statement for the doses used (20 and 50 µg/kg/day s.c.), started two days prior to injury) of the same molecule?
A: inhibited significantly (P<0.01)

Q: What about the CPM ([3]; Angiopeptin 10 ng/ml) of the same molecule?
A: 35113.84 CPM and 46392.32 CPM and 27312.80 CPM and 55980.00 CPM

Q: What about the CPM ([3]; Angiopeptin 20 ng/ml) of the same molecule?
A: 26279.81 CPM and 39027.27 CPM and 39706.01 CPM and 21562.08 CPM

Q: And the CPM ([3]; Angiopeptin 50 ng/ml)?
A: 24269.18 CPM and 40768.09 CPM and 18983.78 CPM and 18942.16 CPM

Q: What about the CPM ([3]; Angiopeptin 100 ng/ml) of the same molecule?
A: 20794.85 CPM and 32402.31 CPM and 22033.48 CPM and 26227.64 CPM

Q: What about the CPM ([3]; Angiopeptin […] (so in the source)) of the same molecule?
A: 18325.51 CPM and 27260.98 CPM and 30226.99 CPM and 32344.58 CPM

Q: What about the “inhibition of smooth muscle cell proliferation” value [4] of the same molecule?
A: nearly complete inhibition
